Source: PubChem BioAssay AID328 (DTP/NCI, 2004)
Values joined by “and” are separate entries in the source; they are usually repeats but may differ in a detail not shown here. Equal values may be shown once. Inconclusive results and toxic doses are left out. How the source made its calls: active means survival T/C of 150% or more; inactive means T/C below 125% in these data.

Tested on: BDF1 mice, P388 leukemia ip, median survival T/C
Assay: NCI In Vivo Anticancer Drug Screen. Data for tumor model P388 Leukemia (intraperitoneal) in B6D2F1 (BDF1) mice
Conditions: endpoint: median survival time, higher = longer survival
In short: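 Mice carrying the transplantable tumour receive compound or vehicle. Survival is followed in each arm, and the treated measure is divided by the vehicle measure.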

[1] = dose: 12.0 mg/kg/injection, schedule: Q01DX009 (ip), vehicle: saline with Tween-80
[2] = dose: 100.0 mg/kg/injection, schedule: Q01DX009 (ip), vehicle: Klucel (hydroxypropylcellulose) (HPC)
[3] = dose: 100.0 mg/kg/injection, schedule: Q04DX003 (ip), vehicle: saline with Tween-80
[4] = dose: 200.0 mg/kg/injection, schedule: Q04DX003 (ip), vehicle: saline with Tween-80
[5] = dose: 400.0 mg/kg/injection, schedule: Q04DX003 (ip), vehicle: saline with Tween-80
[6] = dose: 50.0 mg/kg/injection, schedule: Q01DX009 (ip), vehicle: saline with Tween-80
[7] = dose: 100.0 mg/kg/injection, schedule: Q01DX009 (ip), vehicle: saline with Tween-80
[8] = dose: 200.0 mg/kg/injection, schedule: Q01DX009 (ip), vehicle: saline with Tween-80
[9] = dose: 100.0 mg/kg/injection, schedule: Q01DX009 (ip), vehicle: saline
[10] = dose: 25.0 mg/kg/injection, schedule: Q01DX009 (ip), vehicle: saline with Tween-80
[11] = dose: 25.0 mg/kg/injection, schedule: Q01DX009 (ip), vehicle: saline
[12] = dose: 50.0 mg/kg/injection, schedule: Q01DX009 (ip), vehicle: saline

Measured: T/C

O=C1c2ccccc2C(=O)N1c1cc(O)cc(O)c1
inactive: dose: 1.0 mg/kg/injection, schedule: Q01DX009 (ip), vehicle: water 109 % of control | dose: 2.0 mg/kg/injection, schedule: Q01DX009 (ip), vehicle: water 113 % of control | dose: 4.0 mg/kg/injection, schedule: Q01DX009 (ip), vehicle: water 95 % of control and 98 % of control and 105 % of control | dose: 8.0 mg/kg/injection, schedule: Q01DX009 (ip), vehicle: water 90 % of control and 95 % of control | dose: 16.0 mg/kg/injection, schedule: Q01DX009 (ip), vehicle: water 100 % of control and 115 % of control | dose: 20.0 mg/kg/injection, schedule: Q01DX009 (ip), vehicle: water 101 % of control | dose: 32.0 mg/kg/injection, schedule: Q01DX009 (ip), vehicle: water 109 % of control | dose: 50.0 mg/kg/injection, schedule: Q04DX003 (ip), vehicle: water 100 % of control | dose: 100.0 mg/kg/injection, schedule: Q04DX003 (ip), vehicle: water 106 % of control | dose: 200.0 mg/kg/injection, schedule: Q04DX003 (ip), vehicle: water 97 % of control | dose: 400.0 mg/kg/injection, schedule: Q04DX003 (ip), vehicle: water 92 % of control

CNC(=N)c1ccc(NC(=N)c2ccc(NC(=O)Nc3ccc(C(=N)Nc4ccc(C(=N)NC)cc4)cc3)cc2)cc1
active: dose: 6.0 mg/kg/injection, schedule: Q01DX009 (ip), vehicle: saline with Tween-80 216 % of control | dose: 8.0 mg/kg/injection, schedule: Q01DX009 (ip), vehicle: saline with Tween-80 172 % of control and 214 % of control | [1] 241 % of control and 204 % of control and 214 % of control
inactive: dose: 12.5 mg/kg/injection, schedule: Q04DX003 (ip), vehicle: saline with Tween-80 122 % of control

CCC/C(=C\C(=O)O)CC
inactive: [2] 109 % of control | dose: 200.0 mg/kg/injection, schedule: Q01DX009 (ip), vehicle: Klucel (hydroxypropylcellulose) (HPC) 100 % of control | dose: 400.0 mg/kg/injection, schedule: Q01DX009 (ip), vehicle: Klucel (hydroxypropylcellulose) (HPC) 104 % of control

N#Cc1ccc(Oc2ccc(C#N)cc2)cc1
inactive: [3] 92 % of control | [4] 88 % of control | [5] 88 % of control

CC[C@H]1OC(=O)[C@H](C)[C@@H](OC2CC(C)(OC)C(OC(=O)CCCC(=O)O)C(C)O2)[C@H](C)[C@@H](OC2OC(C)CC(N(C)C)C2O)[C@](C)(O)C[C@@H](C)C(=O)[C@H](C)[C@@H](O)[C@]1(C)O (some centres undefined)
inactive: dose: 7.5 mg/kg/injection, schedule: Q01DX009 (ip), vehicle: Klucel (hydroxypropylcellulose) (HPC) 111 % of control | dose: 15.0 mg/kg/injection, schedule: Q01DX009 (ip), vehicle: Klucel (hydroxypropylcellulose) (HPC) 101 % of control | dose: 30.0 mg/kg/injection, schedule: Q01DX009 (ip), vehicle: Klucel (hydroxypropylcellulose) (HPC) 97 % of control | dose: 60.0 mg/kg/injection, schedule: Q01DX009 (ip), vehicle: Klucel (hydroxypropylcellulose) (HPC) 111 % of control

Cc1ncc(CSc2ccccc2N)c(CO)c1O
inactive: [6] 91 % of control | [7] 92 % of control | [8] 94 % of control

CCCCCCCCCCCCCSCCCCCCCCCCCCSCCCCCCCCCCCC
inactive: dose: 100.0 mg/kg/injection, schedule: Q01DX001 (ip), vehicle: saline sonified 86 % of control | dose: 200.0 mg/kg/injection, schedule: Q01DX001 (ip), vehicle: saline sonified 86 % of control | dose: 400.0 mg/kg/injection, schedule: Q01DX001 (ip), vehicle: saline sonified 90 % of control

CCNc1nncs1
active: [9] 150 % of control and 168 % of control | [4] 165 % of control | dose: 300.0 mg/kg/injection, schedule: Q04DX003 (ip), vehicle: saline with Tween-80 196 % of control
inactive: dose: 30.0 mg/kg/injection, schedule: Q01DX009 (ip), vehicle: saline 116 % of control | dose: 38.0 mg/kg/injection, schedule: Q04DX003 (ip), vehicle: saline with Tween-80 100 % of control | dose: 44.0 mg/kg/injection, schedule: Q01DX009 (ip), vehicle: saline 114 % of control | dose: 58.0 mg/kg/injection, schedule: Q04DX003 (ip), vehicle: saline with Tween-80 100 % of control | dose: 88.0 mg/kg/injection, schedule: Q04DX003 (ip), vehicle: saline with Tween-80 108 % of control | dose: 100.0 mg/kg/injection, schedule: Q04DX003 (ip), vehicle: saline 86 % of control | dose: 150.0 mg/kg/injection, schedule: Q01DX009 (ip), vehicle: saline 105 % of control | dose: 225.0 mg/kg/injection, schedule: Q01DX009 (ip), vehicle: saline 95 % of control

COC(OC)C(=O)/C=C/C(C)COC1CCCCO1 (centres undefined)
inactive: dose: 50.0 mg/kg/injection, schedule: Q04DX003 (ip), vehicle: Klucel (hydroxypropylcellulose) (HPC) 113 % of control | dose: 100.0 mg/kg/injection, schedule: Q04DX003 (ip), vehicle: Klucel (hydroxypropylcellulose) (HPC) 118 % of control | dose: 200.0 mg/kg/injection, schedule: Q04DX003 (ip), vehicle: Klucel (hydroxypropylcellulose) (HPC) 109 % of control

COc1ccc2c(c1)CCC1CC(=O)C=C21 (centres undefined)
inactive: dose: 100.0 mg/kg/injection, schedule: Q01DX001 (ip), vehicle: saline 105 % of control | dose: 200.0 mg/kg/injection, schedule: Q01DX001 (ip), vehicle: saline 90 % of control | dose: 400.0 mg/kg/injection, schedule: Q01DX001 (ip), vehicle: saline 100 % of control

NC(=O)C(Br)CBr (centres undefined)
inactive: dose: 1.5 mg/kg/injection, schedule: Q01DX009 (ip), vehicle: saline with Tween-80 103 % of control | dose: 3.0 mg/kg/injection, schedule: Q01DX009 (ip), vehicle: saline with Tween-80 98 % of control | [1] 107 % of control and 115 % of control | dose: 25.0 mg/kg/injection, schedule: Q01DX009 (ip), vehicle: Klucel (hydroxypropylcellulose) (HPC) 114 % of control | [10] 105 % of control | [11] 99 % of control | dose: 50.0 mg/kg/injection, schedule: Q01DX009 (ip), vehicle: Klucel (hydroxypropylcellulose) (HPC) 94 % of control | [12] 99 % of control | [2] 114 % of control | [9] 92 % of control

N=C(N)SCCN1C(=O)NC(c2ccccc2)(c2ccccc2)C1=O
inactive: dose: 6.25 mg/kg/injection, schedule: Q01DX009 (ip), vehicle: saline 96 % of control and 99 % of control | dose: 12.5 mg/kg/injection, schedule: Q01DX009 (ip), vehicle: saline 90 % of control and 104 % of control | [11] 93 % of control and 105 % of control | [12] 102 % of control and 105 % of control | [9] 106 % of control and 120 % of control

S=c1nc(COc2ccccc2Cl)[nH][nH]1
inactive: [3] 100 % of control | [4] 109 % of control | [5] 104 % of control

O=C(NC(C(=O)O)C(O)c1cn(C(=O)OCc2ccccc2)cn1)OCc1ccccc1 (centres undefined)
inactive: [6] 113 % of control | [7] 110 % of control | [8] 98 % of control

CCCNC(=S)NNC(=O)c1ccncc1
inactive: dose: 6.25 mg/kg/injection, schedule: Q01DX009 (ip), vehicle: saline with Tween-80 98 % of control | dose: 12.5 mg/kg/injection, schedule: Q01DX009 (ip), vehicle: saline with Tween-80 97 % of control | [10] 100 % of control | [6] 90 % of control | [7] 100 % of control

Cc1cccc(NC=O)c1
inactive: [6] 109 % of control | dose: 75.0 mg/kg/injection, schedule: Q01DX009 (ip), vehicle: saline with Tween-80 113 % of control | [3] 115 % of control | dose: 115.0 mg/kg/injection, schedule: Q01DX009 (ip), vehicle: saline with Tween-80 104 % of control | [4] 96 % of control | dose: 225.0 mg/kg/injection, schedule: Q01DX009 (ip), vehicle: saline with Tween-80 109 % of control | dose: 300.0 mg/kg/injection, schedule: Q01DX009 (ip), vehicle: saline with Tween-80 113 % of control | [5] 96 % of control

CSc1nc(N)nc2c1ncn2C1CC(O)C(CO)O1 (centres undefined)
inactive: [12] 95 % of control | [9] 95 % of control and 101 % of control | dose: 200.0 mg/kg/injection, schedule: Q01DX009 (ip), vehicle: saline 100 % of control | dose: 400.0 mg/kg/injection, schedule: Q01DX009 (ip), vehicle: saline 97 % of control

O=C1NC(=O)c2cc([N+](=O)[O-])cc3cccc1c23
inactive: dose: 100.0 mg/kg/injection, schedule: Q04DX003 (ip), vehicle: saline sonified 91 % of control | dose: 200.0 mg/kg/injection, schedule: Q04DX003 (ip), vehicle: saline sonified 95 % of control | dose: 400.0 mg/kg/injection, schedule: Q04DX003 (ip), vehicle: saline sonified 87 % of control
